Results: patent publication US6461997B1, “Triazole sulfones having herbicidal activity” (Monsanto Technology LLC, priority 1999, dated 2002)

Columns and labels:
AMARE (redroot pigweed) [1] = test: Pre-emergence herbicidal activity, warm season; assay type: in vivo, Amaranthus retroflexus; details: GR80 = lowest tested rate (300, 100, 30, 10 g/ha) with 80% or greater inhibition; approx. 14 days after treating; 30/21° C.
Procedure, shortened: (§1)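 Seeds sown in sterilised fertilised topsoil received surface-applied compound in 50:50 acetone/water, typically at 300, 100, 30 and 10 g/ha, then greenhouse-grown at 30/21° C (warm-season species) or 18/13° C (cool-season species). Percent inhibition versus untreated plants was scored at about 14 days, giving GR80; an asterisk marks activity short of 80% at the top rate.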

SETVI (green foxtail) = test: Pre-emergence herbicidal activity, cool season; assay type: in vivo, Setaria viridis; details: GR80 = lowest tested rate (300, 100, 30, 10 g/ha) with 80% or greater inhibition; approx. 14 days after treating; 18/13° C.
Procedure, shortened: as §1

AMARE (redroot pigweed) [2] = test: Pre-plant incorporated (PPI) herbicidal activity, warm season; assay type: in vivo, Amaranthus retroflexus; details: for inhibition at 10 g/ha / inhibition at 30 g/ha / inhibition at 100 g/ha / inhibition at 300 g/ha / inhibition at 900 g/ha: Amaranthus retroflexus, PPI application, read-out: Percent inhibition AMARE; for PPI activity (GR80) AMARE: pre-plant incorporated, GR80 = lowest tested rate with 80% or greater inhibition, approx. 14 days after treating, 30/21° C.
Procedure, shortened: (§2)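 Seeds were sown on compacted topsoil and covered with soil that had been sprayed with compound in organic solvent and mixed through. Pots got 0.64 cm overhead irrigation, then greenhouse at 30/21 °C (warm-season species) or 18/13 °C (cool-season species) day/night. Percent inhibition versus untreated plants was scored about 14 days after planting.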

[3] = system: CHEAL (common lambsquarters); test: as above; assay type: in vivo, Chenopodium album; details: pre-plant incorporated; GR80 = lowest tested rate with 80% or greater inhibition; approx. 14 days after treating; 30/21° C.
Procedure, shortened: as §2

ECHCG (barnyardgrass) = test: as above; assay type: in vivo, Echinochloa crus-galli; details: for inhibition at 10 g/ha / inhibition at 30 g/ha / inhibition at 100 g/ha / inhibition at 300 g/ha / inhibition at 900 g/ha: Echinochloa crus-galli, PPI application, read-out: Percent inhibition ECHCG; for PPI activity GR80, ECHCG: pre-plant incorporated, lowest tested rate with 80% or greater inhibition, about 14 days
Procedure, shortened: as §2

[4] = system: LAMPU (purple deadnettle); test: Pre-plant incorporated (PPI) herbicidal activity, cool season; assay type: in vivo, Lamium purpureum; details: for PPI activity GR80, LAMPU: pre-plant incorporated, lowest tested rate with 80% or greater inhibition, about 14 days
Procedure, shortened: as §2

AVEFA (wild oat) = test: as above; assay type: in vivo, Avena fatua; details: for inhibition at 10 g/ha / inhibition at 30 g/ha / inhibition at 100 g/ha / inhibition at 300 g/ha / inhibition at 900 g/ha: Avena fatua, weed, PPI application, read-out: Percent inhibition AVEFA; for PPI activity GR80, AVEFA: pre-plant incorporated, lowest tested rate with 80% or greater inhibition, about 14 days
Procedure, shortened: as §2

[5] = system: AGRRE (quackgrass (seedling)); test: as above; assay type: in vivo, Elymus repens; details: for inhibition at 10 g/ha / inhibition at 30 g/ha / inhibition at 100 g/ha / inhibition at 300 g/ha / inhibition at 900 g/ha: Elymus repens, weed, PPI application, read-out: Percent inhibition AGRRE; for PPI activity GR80, AGRRE: pre-plant incorporated, lowest tested rate with 80% or greater inhibition, about 14 days
Procedure, shortened: as §2

XANST (cocklebur) = test: Pre-plant incorporated (PPI) herbicidal activity, warm season; assay type: in vivo, Xanthium strumarium; details: Xanthium strumarium, PPI application, read-out: Percent inhibition XANST
Procedure, shortened: as §2

wheat (TRZAW) = test: Selectivity test, PPI, cool season crop; assay type: in vivo, Triticum aestivum; details: Triticum aestivum, PPI application, read-out: Percent inhibition TRZAW
Procedure, shortened: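 Pre-plant incorporated: compound in organic solvent sprayed onto cover soil, mixed and laid over seeds; untreated soil for controls. Greenhouse after treatment: warm season 30/21° C., cool season 18/13° C. day/night. Percent inhibition versus untreated plants scored about 14 days after planting.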

[6] = Lamium purpureum, weed, PPI application, read-out: Percent inhibition LAMPU

## C=CCC(F)(F)S(=O)(=O)c1ncn(C(=O)N(CC)CC)n1 [Example 17, 1-(N,N-diethylcarbamoyl)-3-[(1,1-difluoro-3-butenyl)sulfonyl]-1,2,4-triazole]
AMARE (redroot pigweed) [1]
  Pre-emergence activity (GR80) AMARE: 300 g/ha
SETVI (green foxtail)
  Pre-emergence activity (GR80) SETVI: 100 g/ha
AMARE (redroot pigweed) [2]
  inhibition at 10 g/ha: 60%
  inhibition at 30 g/ha: 95%
  inhibition at 100 g/ha: 100%
  inhibition at 300 g/ha: 100%
  inhibition at 900 g/ha: 100%
  PPI activity (GR80) AMARE: 10 g/ha
[3]
  PPI activity (GR80) CHEAL: 300 g/ha
ECHCG (barnyardgrass)
  inhibition at 10 g/ha: 40%
  inhibition at 30 g/ha: 95%
  inhibition at 100 g/ha: 100%
  inhibition at 300 g/ha: 100%
  inhibition at 900 g/ha: 100%
  PPI activity GR80, ECHCG: 30 g/ha
[4]; [6]
  inhibition at 10 g/ha: 100%
  inhibition at 30 g/ha: 100%
  inhibition at 300 g/ha: 100%
  inhibition at 900 g/ha: 100%
[4]; Lamium purpureum, weed, PPI application, 100 g/ha, read-out: Percent inhibition LAMPU
  inhibition at 100 g/ha: 100%
[4]
  PPI activity GR80, LAMPU: 30 g/ha
AVEFA (wild oat)
  inhibition at 10 g/ha: 0%
  inhibition at 30 g/ha: 15%
  inhibition at 100 g/ha: 50%
  inhibition at 300 g/ha: 75%
  inhibition at 900 g/ha: 100%
  PPI activity GR80, AVEFA: 100 g/ha
[5]
  inhibition at 10 g/ha: 0%
  inhibition at 30 g/ha: 40%
  inhibition at 100 g/ha: 50%
  inhibition at 300 g/ha: 60%
  inhibition at 900 g/ha: 70%
  PPI activity GR80, AGRRE: 100 g/ha
XANST (cocklebur)
  inhibition at 10 g/ha: 0%
  inhibition at 30 g/ha: 0%
  inhibition at 100 g/ha: 0%
  inhibition at 300 g/ha: 20%
  inhibition at 900 g/ha: 100%
Wheat (TRZAW)
  inhibition at 10 g/ha: 0%
  inhibition at 30 g/ha: 0%
  inhibition at 100 g/ha: 10%
  inhibition at 300 g/ha: 30%
  inhibition at 900 g/ha: 60%

## C=C(C)CC(F)(F)S(=O)(=O)c1ncn(C(=O)N(CC)CC)n1 [Example 18]
AMARE (redroot pigweed) [1]
  Pre-emergence activity (GR80) AMARE: 300 g/ha
SETVI (green foxtail)
  Pre-emergence activity (GR80) SETVI: 30 g/ha
AMARE (redroot pigweed) [2]
  inhibition at 10 g/ha: 30%
  inhibition at 30 g/ha: 100%
  inhibition at 100 g/ha: 100%
  inhibition at 300 g/ha: 100%
  inhibition at 900 g/ha: 100%
  PPI activity (GR80) AMARE: 300 g/ha
[3]
  PPI activity (GR80) CHEAL: 30 g/ha
ECHCG (barnyardgrass)
  inhibition at 10 g/ha: 30%
  inhibition at 30 g/ha: 100%
  inhibition at 100 g/ha: 100%
  inhibition at 300 g/ha: 100%
  inhibition at 900 g/ha: 100%
  PPI activity GR80, ECHCG: 30 g/ha
[4]; [6]
  inhibition at 10 g/ha: 0%
  inhibition at 30 g/ha: 0%
  inhibition at 300 g/ha: 0%
  inhibition at 900 g/ha: 70%
[4]
  PPI activity GR80, LAMPU: 10 g/ha
AVEFA (wild oat)
  inhibition at 10 g/ha: 0%
  inhibition at 30 g/ha: 0%
  inhibition at 100 g/ha: 10%
  inhibition at 300 g/ha: 50%
  inhibition at 900 g/ha: 99%
  PPI activity GR80, AVEFA: 300 g/ha
[5]
  inhibition at 10 g/ha: 0%
  inhibition at 30 g/ha: 30%
  inhibition at 100 g/ha: 20%
  inhibition at 300 g/ha: 20%
  inhibition at 900 g/ha: 80%
  PPI activity GR80, AGRRE: 100 g/ha
XANST (cocklebur)
  inhibition at 10 g/ha: 0%
  inhibition at 30 g/ha: 0%
  inhibition at 100 g/ha: 0%
  inhibition at 300 g/ha: 0%
  inhibition at 900 g/ha: 30%
Wheat (TRZAW)
  inhibition at 10 g/ha: 0%
  inhibition at 30 g/ha: 0%
  inhibition at 100 g/ha: 0%
  inhibition at 300 g/ha: 30%
  inhibition at 900 g/ha: 60%

## C=C(Br)CC(F)(F)S(=O)(=O)c1ncn(C(=O)N(CC)CC)n1 [Example 19]
AMARE (redroot pigweed) [1]
  Pre-emergence activity (GR80) AMARE: * (activity observed, at least at highest rate, but <80% inhibition)
SETVI (green foxtail)
  Pre-emergence activity (GR80) SETVI: 100 g/ha
AMARE (redroot pigweed) [2]
  inhibition at 10 g/ha: 0%
  inhibition at 30 g/ha: 20%
  inhibition at 100 g/ha: 95%
  inhibition at 300 g/ha: 95%
  inhibition at 900 g/ha: 100%
  PPI activity (GR80) AMARE: 100 g/ha
[3]
  PPI activity (GR80) CHEAL: 100 g/ha
ECHCG (barnyardgrass)
  inhibition at 10 g/ha: 20%
  inhibition at 30 g/ha: 20%
  inhibition at 100 g/ha: 100%
  inhibition at 300 g/ha: 100%
  inhibition at 900 g/ha: 100%
  PPI activity GR80, ECHCG: 30 g/ha
[4]; [6]
  inhibition at 10 g/ha: 0%
  inhibition at 30 g/ha: 0%
  inhibition at 300 g/ha: 0%
  inhibition at 900 g/ha: 99%
[4]
  PPI activity GR80, LAMPU: 100 g/ha
AVEFA (wild oat)
  inhibition at 10 g/ha: 0%
  inhibition at 30 g/ha: 0%
  inhibition at 100 g/ha: 30%
  inhibition at 300 g/ha: 70%
  inhibition at 900 g/ha: 60%
  PPI activity GR80, AVEFA: 300 g/ha
[5]
  inhibition at 10 g/ha: 0%
  inhibition at 30 g/ha: 0%
  inhibition at 100 g/ha: 10%
  inhibition at 300 g/ha: 20%
  inhibition at 900 g/ha: 80%
  PPI activity GR80, AGRRE: 100 g/ha
XANST (cocklebur)
  inhibition at 10 g/ha: 0%
  inhibition at 30 g/ha: 0%
  inhibition at 100 g/ha: 0%
  inhibition at 300 g/ha: 0%
  inhibition at 900 g/ha: 90%
Wheat (TRZAW)
  inhibition at 10 g/ha: 0%
  inhibition at 30 g/ha: 0%
  inhibition at 100 g/ha: 30%
  inhibition at 300 g/ha: 70%
  inhibition at 900 g/ha: 60%
